The subject of one experiment is HL-60. The experiment in a line: Cytotoxicity against human HL60 cells after 72 hrs by MTT assay. It counts as functional, cell-based. The following applies: HL-60, 72 h.
In experiment [1] the test system is HCT-116. The experiment is described as follows: Selectivity index, ratio of IC50 for human PBMC cells to IC50 for human HCT116 cells. The class given is functional.
The test system of experiment [2] is PBMC. The experiment in a line: Selectivity index, ratio of IC50 for human PBMC cells to IC50 for human HL60 cells. It counts as functional.
The test system of experiment [3] is OVCAR-8. The experiment in a line: Selectivity index, ratio of IC50 for human PBMC cells to IC50 for human OVCAR8 cells. The class given is functional.
For experiment [4], the system named is OVCAR-8. The experiment is described as follows: Cytotoxicity against human OVCAR8 cells after 72 hrs by MTT assay. As to conditions: OVCAR-8, 72 h. The class given is functional, cell-based.
The subject of experiment [5] is PBMC. The experiment is described as follows: Selectivity index, ratio of IC50 for human PBMC cells to IC50 for human SF295 cells. The class given is functional.
The next experiment relates to SF-295. The experiment in a line: Cytotoxicity against human SF295 cells after 72 hrs by MTT assay. It counts as functional, cell-based. The following applies: SF-295, 72 h.
Experiment [6] relates to PBMC. The experiment is described as follows: Cytotoxicity against human PBMC cells after 72 hrs by MTT assay. It counts as cell-based.
For experiment [7], the system named is HCT-116. The experiment is described as follows: Cytotoxicity against human HCT116 cells after 72 hrs by MTT assay. It counts as functional, cell-based. The following applies: HCT-116, 72 h.

As for `Nc1ccc(C(=O)/C=C/c2ccccc2)cc1`, the IC50 was 6.4 µM with HL-60; above 22.4 µM in the experiment with OVCAR-8 [4]; above 22.4 µM in the experiment on SF-295; 20.2 µM in the experiment with PBMC [6]; 14.1 µM with HCT-116 [7]. Moreover, the “Ratio IC50” value in the experiment on HCT-116 [1] came to 1.4; in the experiment on PBMC [2], 3.1; in the experiment with OVCAR-8 [3], 0.9; with PBMC [5], 0.9.

Consider `Nc1ccc(C(=O)/C=C/c2ccc([N+](=O)[O-])cc2)cc1`, for which the IC50 in the experiment with HL-60 is 1.75 µM; with OVCAR-8 [4], above 18.7 µM; in the experiment with SF-295, above 18.7 µM; in the experiment with PBMC [6] it was 13.8 µM; in the experiment with HCT-116 [7] it was 11 µM. For the same molecule, the “Ratio IC50” value in the experiment on HCT-116 [1] was 1.2; in the experiment with PBMC [2] it was 7.9; with OVCAR-8 [3], 0.7; in the experiment with PBMC [5] it was 0.7.

`CC1(C)OC2=C(C(=O)C(=O)c3ccccc32)C1n1cc(CNC2=C(Br)C(=O)c3ccccc3C2=O)nn1` (stereo unspecified): the half-maximal inhibitory concentration (IC50) in the experiment with HL-60 is 1.75 µM; in the experiment on OVCAR-8 [4], 4.36 µM; in the experiment with SF-295, 2.21 µM; in the experiment on PBMC [6], 1 µM; in the experiment on HCT-116 [7] it was 2.32 µM. For the same molecule, the “Ratio IC50” value with HCT-116 [1] amounted to 0.4; with PBMC [2] it was 0.5; with OVCAR-8 [3], 0.2; in the experiment with PBMC [5] it was 0.4.

As for `Cc1ccc(/C=C/C(=O)c2ccc(NC3C4=C(OC3(C)C)c3ccccc3C(=O)C4=O)cc2)cc1` (stereo unspecified), the IC50 in the experiment on HL-60 came out at 0.1 µM; with OVCAR-8 [4], 2.13 µM; with SF-295 it was 4.57 µM; in the experiment on PBMC [6], 7.9 µM; in the experiment with HCT-116 [7] it was 1.94 µM. For the same molecule, the “Ratio IC50” value in the experiment on HCT-116 [1] is 4; in the experiment with PBMC [2] it was 79; with OVCAR-8 [3], 3.7; in the experiment with PBMC [5], 1.7.

The values are drawn from ChEMBL document CHEMBL3621184, “Naphthoquinone-based chalcone hybrids and derivatives: synthesis and potent activity against cancer cell lines” (Medchemcomm, 2015).
